Values of other authors in US20100119576A1, “USE OF ONE OR MORE OF THE ELEMENTS FROM THE GROUP YTTRIUM, NEODYMIUM AND ZIRCONIUM, AND PHARMACEUTICAL COMPOSITIONS WHICH CONTAIN THOSE ELEMENTS” (BIOTRONIK VI PATENT AG, priority 2002, published 2010).

Tested on: Klebsiella pneumoniae strain 204 and K9
Details: 142 mM Y(OH)3

Q: For `[OH-].[OH-].[OH-].[Y+3]` [Y(OH)3], which “proliferation of K. pneumoniae” value is on record?
A: Its value is “increased proliferation”.
